Results on one molecule are retold here after ChEMBL document CHEMBL1156113, “Synthesis of new sugar derivatives and evaluation of their antibacterial activities against Mycobacterium tuberculosis” (Bioorg Med Chem Lett, 2009).

Each structure is given as a SMILES string. In brackets after ≈: the same amount, converted by molar mass.

Common to all, as to assay type: functional
Assay [1] concerns Mycobacterium tuberculosis. The assay can be described thus: Antimycobacterial activity against multidrug-resistant Mycobacterium tuberculosis isolate M-1-32 by agar proportion method.
The test system of assay [2] is Mycobacterium tuberculosis. The assay can be described thus: Antimycobacterial activity against isoniazid-resistant Mycobacterium tuberculosis isolate A-2-1 by agar proportion method.
Assay [3] relates to Mycobacterium tuberculosis. The assay can be described thus: Antimycobacterial activity against multidrug-resistant Mycobacterium tuberculosis isolate K-3-6 by agar proportion method.
Assay [4] concerns Mycobacterium tuberculosis. The assay can be described thus: Antimycobacterial activity against multidrug-resistant Mycobacterium tuberculosis isolate Q-4-1 by agar proportion method.
The test system of assay [5] is Mycobacterium tuberculosis. The assay can be described thus: Antimycobacterial activity against multidrug-resistant Mycobacterium tuberculosis isolate P-1-50 by agar proportion method.
Assay [6] relates to Mycobacterium tuberculosis. The assay can be described thus: Antimycobacterial activity against multidrug-resistant Mycobacterium tuberculosis isolate A-2-6 by agar proportion method.
Assay [7] deals with Mycobacterium tuberculosis. The assay can be described thus: Antimycobacterial activity against multidrug-resistant Mycobacterium tuberculosis isolate U-2-15 by agar proportion method.
Assay [8] relates to Mycobacterium tuberculosis. The assay can be described thus: Antimycobacterial activity against streptomycin-resistant Mycobacterium tuberculosis isolate A-3-47 by agar proportion method.
Assay [9] has as its system Mycobacterium tuberculosis. The assay can be described thus: Antimycobacterial activity against streptomycin-resistant Mycobacterium tuberculosis isolate A-4-8 by agar proportion method.
In assay [10] the test system is Mycobacterium tuberculosis. The assay can be described thus: Antimycobacterial activity against isoniazid, rifampicin-resistant Mycobacterium tuberculosis isolate J-1-19 by agar proportion method.
The test system of assay [11] is Mycobacterium tuberculosis. The assay can be described thus: Antimycobacterial activity against isoniazid, streptomycin-resistant Mycobacterium tuberculosis isolate A-4-25 by agar proportion method.
For assay [12], the system named is Mycobacterium tuberculosis. The assay can be described thus: Antimycobacterial activity against multidrug-resistant Mycobacterium tuberculosis isolate P-4-11 by agar proportion method.
For assay [13], the system named is Mycobacterium tuberculosis. The assay can be described thus: Antimycobacterial activity against multidrug-resistant Mycobacterium tuberculosis isolate N-4-11 by agar proportion method.
Assay [14] deals with Mycobacterium tuberculosis. The assay can be described thus: Antimycobacterial activity against multidrug-resistant Mycobacterium tuberculosis isolate U-4-6 by agar proportion method.
Assay [15] relates to Mycobacterium tuberculosis. The assay can be described thus: Antimycobacterial activity against multidrug-resistant Mycobacterium tuberculosis isolate R-1-38 by agar proportion method.
Assay [16] deals with Mycobacterium tuberculosis. The assay can be described thus: Antimycobacterial activity against multidrug-resistant Mycobacterium tuberculosis isolate Z-1-4 by agar proportion method.
Assay [17] deals with Mycobacterium tuberculosis. The assay can be described thus: Antimycobacterial activity against isoniazid, rifampicin-resistant Mycobacterium tuberculosis isolate A-2-3 by agar proportion method.
The test system of assay [18] is Mycobacterium tuberculosis. The assay can be described thus: Antimycobacterial activity against multidrug-resistant Mycobacterium tuberculosis isolate N-5-2 by agar proportion method.
For assay [19], the system named is Mycobacterium tuberculosis. The assay can be described thus: Antimycobacterial activity against rifampicin-resistant Mycobacterium tuberculosis isolate A-2-4 by agar proportion method.

As a reminder, the MIC is the smallest concentration in the dilution series that meets the test's criterion for growth inhibition. Regarding `CC(=O)N[C@@H]1[C@@H](O)[C@H](O)[C@@H](CO)O[C@H]1SC(=S)N(C)C`, the MIC in [1], in [2], in [3], in assay [4], in assay [5] and in assay [6] was 6.25 µg/mL (≈ 19.3 µM) each time. Also, the MIC in assay [7] is 3.12 µg/mL (≈ 9.62 µM); in [8] it was 6.25 µg/mL (≈ 19.3 µM); in assay [9], 6.25 µg/mL (≈ 19.3 µM); in [10], 6.25 µg/mL (≈ 19.3 µM); in [11], 6.25 µg/mL (≈ 19.3 µM); in [12], 6.25 µg/mL (≈ 19.3 µM). Besides, the MIC is 6.25 µg/mL (≈ 19.3 µM) in assay [13]; 6.25 µg/mL (≈ 19.3 µM) in assay [14]; 6.25 µg/mL (≈ 19.3 µM) in assay [15]; 6.25 µg/mL (≈ 19.3 µM) in [16]; 3.12 µg/mL (≈ 9.62 µM) in [17]; 1.56 µg/mL (≈ 4.81 µM) in assay [18]. This molecule had an MIC in assay [19] of 6.25 µg/mL (≈ 19.3 µM).
